Laboratory results taken from publication PMC10176470, “Engaging a Non-catalytic Cysteine Residue Drives Potent and Selective Inhibition of Caspase-6” (Journal of the American Chemical Society, 2023).

Legend:
[1] = target: proteins of HEK293T cells transiently overexpressing caspase-6 (Homo sapiens, UniProt P12004); type: cell-based; settings: protein PCNA (P12004)
[2] = target: proteins of HEK293T cells transiently overexpressing caspase-6 (Homo sapiens, UniProt P13639); type: cell-based; settings: protein EEF2 (P13639)
[3] = target: proteins of HEK293T cells transiently overexpressing caspase-6 (Homo sapiens, UniProt P14174); type: cell-based; settings: Probe; protein MIF P14174
Sequence of proteins of HEK293T cells transiently overexpressing caspase-6 (Homo sapiens, UniProt P14174) (P14174 whole entry): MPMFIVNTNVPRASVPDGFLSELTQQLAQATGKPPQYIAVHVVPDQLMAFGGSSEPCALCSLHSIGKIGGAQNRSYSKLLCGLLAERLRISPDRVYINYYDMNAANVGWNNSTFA

[4] = target: proteins of HEK293T cells transiently overexpressing caspase-6 (Homo sapiens, UniProt P49411); type: cell-based; settings: exp_ref Probe; protein TUFM (P49411); analysis C6
[5] = target: proteins of HEK293T cells transiently overexpressing caspase-6 (Homo sapiens, UniProt P62244); type: cell-based; settings: exp_ref Probe; protein RPS15A (P62244); analysis C6
[6] = target: proteins of HEK293T cells transiently overexpressing caspase-6 (Homo sapiens, UniProt Q9Y6C9); type: cell-based; settings: protein MTCH2 (Q9Y6C9); exp_ref Probe; analysis C6
Sequence of proteins of HEK293T cells transiently overexpressing caspase-6 (Homo sapiens, UniProt Q9Y6C9) (Q9Y6C9 whole entry): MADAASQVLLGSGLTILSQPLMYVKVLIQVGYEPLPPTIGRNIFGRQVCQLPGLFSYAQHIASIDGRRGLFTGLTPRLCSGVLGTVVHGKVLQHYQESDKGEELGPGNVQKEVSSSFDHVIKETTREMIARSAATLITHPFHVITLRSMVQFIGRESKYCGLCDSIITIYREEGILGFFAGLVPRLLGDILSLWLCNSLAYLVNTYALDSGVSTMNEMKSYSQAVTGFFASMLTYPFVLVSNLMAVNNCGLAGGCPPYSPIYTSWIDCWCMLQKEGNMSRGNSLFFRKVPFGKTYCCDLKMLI

[7] = target: T1, proteins of HEK293T cells transiently overexpressing caspase-6 (Homo sapiens, UniProt O00567); assay: SILAC proteomics / in-gel fluorescence, competition of probe 13-t labeling by 3a
T1 sequence (O00567 1-594): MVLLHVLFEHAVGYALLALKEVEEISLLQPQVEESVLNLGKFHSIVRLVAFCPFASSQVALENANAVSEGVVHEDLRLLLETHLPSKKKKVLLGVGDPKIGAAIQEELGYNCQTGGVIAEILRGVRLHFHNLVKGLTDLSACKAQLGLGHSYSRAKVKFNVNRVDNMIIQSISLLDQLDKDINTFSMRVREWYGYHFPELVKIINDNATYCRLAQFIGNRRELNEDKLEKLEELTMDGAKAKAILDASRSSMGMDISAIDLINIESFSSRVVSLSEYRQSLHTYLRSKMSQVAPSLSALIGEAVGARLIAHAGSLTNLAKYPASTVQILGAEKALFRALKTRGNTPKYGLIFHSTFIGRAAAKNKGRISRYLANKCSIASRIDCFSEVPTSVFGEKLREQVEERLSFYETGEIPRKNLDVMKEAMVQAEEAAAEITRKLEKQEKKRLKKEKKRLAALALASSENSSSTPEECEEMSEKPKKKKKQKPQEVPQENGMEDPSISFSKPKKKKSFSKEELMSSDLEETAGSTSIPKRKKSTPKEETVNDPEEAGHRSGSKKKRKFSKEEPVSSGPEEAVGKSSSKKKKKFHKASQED

[8] = target: T2, proteins of HEK293T cells transiently overexpressing caspase-6 (Homo sapiens, UniProt O43175); assay: as above; settings: Comp; protein PHGDH O43175
T2 sequence (O43175 1-533): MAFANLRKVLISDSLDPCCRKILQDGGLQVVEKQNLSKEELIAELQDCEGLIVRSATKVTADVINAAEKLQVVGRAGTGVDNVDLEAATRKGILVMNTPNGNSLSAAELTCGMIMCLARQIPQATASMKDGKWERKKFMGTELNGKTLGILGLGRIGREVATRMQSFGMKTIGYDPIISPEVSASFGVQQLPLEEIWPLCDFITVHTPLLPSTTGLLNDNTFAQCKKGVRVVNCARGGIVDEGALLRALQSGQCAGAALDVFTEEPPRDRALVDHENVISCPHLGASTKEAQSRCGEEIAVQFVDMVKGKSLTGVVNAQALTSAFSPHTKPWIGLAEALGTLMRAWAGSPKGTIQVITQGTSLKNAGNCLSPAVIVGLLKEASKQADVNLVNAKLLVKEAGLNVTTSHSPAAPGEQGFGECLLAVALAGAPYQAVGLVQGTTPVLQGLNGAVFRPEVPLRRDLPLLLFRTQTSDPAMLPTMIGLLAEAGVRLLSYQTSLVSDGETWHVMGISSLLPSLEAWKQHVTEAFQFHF

[9] = target: proteins of HEK293T cells transiently overexpressing caspase-6 (Homo sapiens, UniProt P08238); assay: as above; settings: Comp; protein HSP90AB1 P08238
[10] = target: proteins of HEK293T cells transiently overexpressing caspase-6 (Homo sapiens, UniProt P13797); assay: as above; settings: Comp; protein PLS3 P13797
Sequence of proteins of HEK293T cells transiently overexpressing caspase-6 (Homo sapiens, UniProt P13797) (P13797 whole entry): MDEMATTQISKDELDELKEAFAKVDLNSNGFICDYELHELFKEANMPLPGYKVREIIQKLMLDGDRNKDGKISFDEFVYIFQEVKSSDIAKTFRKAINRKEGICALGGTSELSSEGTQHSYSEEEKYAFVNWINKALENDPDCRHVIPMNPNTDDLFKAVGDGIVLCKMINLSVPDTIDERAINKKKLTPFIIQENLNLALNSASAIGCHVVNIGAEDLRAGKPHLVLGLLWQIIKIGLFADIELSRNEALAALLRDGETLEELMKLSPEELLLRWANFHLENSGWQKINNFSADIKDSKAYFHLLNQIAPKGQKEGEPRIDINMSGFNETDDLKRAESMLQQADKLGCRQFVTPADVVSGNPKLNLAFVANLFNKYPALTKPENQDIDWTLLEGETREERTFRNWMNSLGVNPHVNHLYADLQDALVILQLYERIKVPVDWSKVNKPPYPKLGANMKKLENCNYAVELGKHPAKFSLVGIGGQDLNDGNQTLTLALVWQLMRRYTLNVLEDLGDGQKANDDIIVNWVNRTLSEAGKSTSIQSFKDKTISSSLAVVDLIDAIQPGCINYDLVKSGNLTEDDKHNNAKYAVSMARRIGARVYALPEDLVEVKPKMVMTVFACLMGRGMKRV

[11] = target: proteins of HEK293T cells transiently overexpressing caspase-6 (Homo sapiens, UniProt P27708); assay: as above
Sequence of proteins of HEK293T cells transiently overexpressing caspase-6 (Homo sapiens, UniProt P27708) (P27708 whole entry): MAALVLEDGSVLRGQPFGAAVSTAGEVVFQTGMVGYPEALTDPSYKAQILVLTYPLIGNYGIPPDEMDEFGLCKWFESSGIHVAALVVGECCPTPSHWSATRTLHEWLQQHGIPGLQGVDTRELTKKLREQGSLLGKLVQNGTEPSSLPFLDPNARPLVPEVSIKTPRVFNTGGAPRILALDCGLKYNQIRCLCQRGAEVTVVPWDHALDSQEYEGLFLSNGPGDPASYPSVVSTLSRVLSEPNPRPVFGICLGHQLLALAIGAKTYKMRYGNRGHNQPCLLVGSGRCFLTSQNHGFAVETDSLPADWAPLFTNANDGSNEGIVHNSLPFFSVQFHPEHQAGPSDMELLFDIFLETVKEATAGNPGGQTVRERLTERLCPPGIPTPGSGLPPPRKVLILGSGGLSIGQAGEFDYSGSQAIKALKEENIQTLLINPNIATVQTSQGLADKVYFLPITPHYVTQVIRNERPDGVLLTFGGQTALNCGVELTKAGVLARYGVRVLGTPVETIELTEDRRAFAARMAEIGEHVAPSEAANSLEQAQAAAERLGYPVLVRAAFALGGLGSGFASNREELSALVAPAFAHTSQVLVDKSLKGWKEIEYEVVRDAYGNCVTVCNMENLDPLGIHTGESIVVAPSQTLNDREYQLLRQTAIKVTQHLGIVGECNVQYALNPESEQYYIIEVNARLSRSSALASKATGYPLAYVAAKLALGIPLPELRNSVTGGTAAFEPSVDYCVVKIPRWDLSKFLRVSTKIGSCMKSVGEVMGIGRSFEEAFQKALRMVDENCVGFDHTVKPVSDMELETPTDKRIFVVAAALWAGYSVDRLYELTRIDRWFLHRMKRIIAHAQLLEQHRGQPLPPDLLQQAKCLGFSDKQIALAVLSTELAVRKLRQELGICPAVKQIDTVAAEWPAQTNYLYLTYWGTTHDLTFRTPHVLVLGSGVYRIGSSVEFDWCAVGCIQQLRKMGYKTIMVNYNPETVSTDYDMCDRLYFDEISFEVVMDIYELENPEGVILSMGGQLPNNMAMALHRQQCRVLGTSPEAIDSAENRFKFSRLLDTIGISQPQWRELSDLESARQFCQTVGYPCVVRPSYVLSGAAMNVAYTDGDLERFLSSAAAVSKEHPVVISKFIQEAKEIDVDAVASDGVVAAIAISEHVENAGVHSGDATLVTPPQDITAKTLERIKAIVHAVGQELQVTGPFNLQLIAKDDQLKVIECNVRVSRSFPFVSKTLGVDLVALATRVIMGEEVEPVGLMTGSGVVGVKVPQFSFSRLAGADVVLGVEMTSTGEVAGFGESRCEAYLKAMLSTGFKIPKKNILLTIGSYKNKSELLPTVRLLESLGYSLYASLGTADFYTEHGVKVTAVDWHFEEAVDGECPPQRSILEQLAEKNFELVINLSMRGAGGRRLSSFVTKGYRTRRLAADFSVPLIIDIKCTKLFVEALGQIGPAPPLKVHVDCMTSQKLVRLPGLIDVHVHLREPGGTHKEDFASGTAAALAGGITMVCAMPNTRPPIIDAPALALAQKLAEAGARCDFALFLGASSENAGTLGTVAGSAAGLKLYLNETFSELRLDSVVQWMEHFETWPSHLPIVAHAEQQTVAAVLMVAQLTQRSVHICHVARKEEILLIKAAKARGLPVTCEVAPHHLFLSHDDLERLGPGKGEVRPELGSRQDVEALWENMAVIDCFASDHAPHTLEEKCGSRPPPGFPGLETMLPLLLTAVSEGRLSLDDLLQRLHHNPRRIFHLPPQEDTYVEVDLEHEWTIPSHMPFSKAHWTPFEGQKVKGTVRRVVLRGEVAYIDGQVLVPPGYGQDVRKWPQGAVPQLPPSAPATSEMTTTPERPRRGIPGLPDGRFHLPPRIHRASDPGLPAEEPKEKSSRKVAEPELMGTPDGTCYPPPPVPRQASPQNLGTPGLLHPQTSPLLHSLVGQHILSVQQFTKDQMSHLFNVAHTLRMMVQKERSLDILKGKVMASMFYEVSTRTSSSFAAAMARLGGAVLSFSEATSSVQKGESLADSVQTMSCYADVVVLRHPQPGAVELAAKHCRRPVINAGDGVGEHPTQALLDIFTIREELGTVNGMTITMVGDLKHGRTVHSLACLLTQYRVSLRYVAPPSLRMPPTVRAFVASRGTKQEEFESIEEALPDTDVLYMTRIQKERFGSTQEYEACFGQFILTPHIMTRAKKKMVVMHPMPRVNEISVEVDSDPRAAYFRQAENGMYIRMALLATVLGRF

[12] = target: proteins of HEK293T cells transiently overexpressing caspase-6 (Homo sapiens, UniProt P33992); assay: as above; settings: Comp; protein MCM5 P33992
[13] = target: proteins of HEK293T cells transiently overexpressing caspase-6 (Homo sapiens, UniProt P42704); assay: as above; settings: Comp; protein LRPPRC P42704
[14] = target: proteins of HEK293T cells transiently overexpressing caspase-6 (Homo sapiens, UniProt P46782); assay: as above; settings: Comp; protein RPS5 P46782
[15] = target: proteins of HEK293T cells transiently overexpressing caspase-6 (Homo sapiens, UniProt Q86VP6); assay: as above; settings: Comp; protein CAND1 Q86VP6
Sequence of proteins of HEK293T cells transiently overexpressing caspase-6 (Homo sapiens, UniProt Q86VP6) (Q86VP6 whole entry): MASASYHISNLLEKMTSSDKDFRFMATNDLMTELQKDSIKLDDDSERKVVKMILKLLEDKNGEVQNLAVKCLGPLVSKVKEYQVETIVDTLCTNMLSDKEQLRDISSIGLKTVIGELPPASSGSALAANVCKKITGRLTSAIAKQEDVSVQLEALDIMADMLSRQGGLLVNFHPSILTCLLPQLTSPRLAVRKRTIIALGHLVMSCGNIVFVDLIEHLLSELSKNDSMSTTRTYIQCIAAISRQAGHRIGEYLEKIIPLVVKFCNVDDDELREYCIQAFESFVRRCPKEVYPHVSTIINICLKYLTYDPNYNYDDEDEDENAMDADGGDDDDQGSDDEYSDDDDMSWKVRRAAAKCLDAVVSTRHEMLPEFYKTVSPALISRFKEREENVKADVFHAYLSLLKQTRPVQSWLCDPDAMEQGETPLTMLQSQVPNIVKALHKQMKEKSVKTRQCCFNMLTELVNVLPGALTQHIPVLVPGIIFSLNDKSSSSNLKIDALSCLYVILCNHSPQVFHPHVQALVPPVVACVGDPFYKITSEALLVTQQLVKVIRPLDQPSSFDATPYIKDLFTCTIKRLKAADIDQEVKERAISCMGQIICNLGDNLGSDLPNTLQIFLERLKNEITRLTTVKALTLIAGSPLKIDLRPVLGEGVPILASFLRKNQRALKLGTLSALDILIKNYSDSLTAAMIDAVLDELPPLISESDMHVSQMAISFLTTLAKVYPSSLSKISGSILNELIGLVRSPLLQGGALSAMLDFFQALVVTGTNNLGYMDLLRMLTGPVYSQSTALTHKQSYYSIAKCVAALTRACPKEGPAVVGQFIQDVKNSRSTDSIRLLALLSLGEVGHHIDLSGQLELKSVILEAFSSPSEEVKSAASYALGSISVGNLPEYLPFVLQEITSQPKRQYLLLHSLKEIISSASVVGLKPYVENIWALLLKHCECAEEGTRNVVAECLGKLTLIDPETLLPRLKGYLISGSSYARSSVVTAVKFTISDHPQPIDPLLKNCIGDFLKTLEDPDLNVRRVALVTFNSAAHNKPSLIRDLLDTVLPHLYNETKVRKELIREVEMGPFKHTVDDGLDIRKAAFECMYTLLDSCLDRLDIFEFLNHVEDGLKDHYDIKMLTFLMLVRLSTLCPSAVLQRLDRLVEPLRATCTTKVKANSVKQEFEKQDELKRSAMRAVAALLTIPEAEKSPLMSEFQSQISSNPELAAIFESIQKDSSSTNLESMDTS

[16] = protein NOP56 (O00567), Exp Comp, analysis C6, p 0.1250, 4 peptides
[17] = protein CAD (P27708), Exp Comp, analysis C6, p 0.5000, 2 peptides

Sequence of proteins of HEK293T cells transiently overexpressing caspase-6 (Homo sapiens, UniProt P12004) (P12004 whole entry): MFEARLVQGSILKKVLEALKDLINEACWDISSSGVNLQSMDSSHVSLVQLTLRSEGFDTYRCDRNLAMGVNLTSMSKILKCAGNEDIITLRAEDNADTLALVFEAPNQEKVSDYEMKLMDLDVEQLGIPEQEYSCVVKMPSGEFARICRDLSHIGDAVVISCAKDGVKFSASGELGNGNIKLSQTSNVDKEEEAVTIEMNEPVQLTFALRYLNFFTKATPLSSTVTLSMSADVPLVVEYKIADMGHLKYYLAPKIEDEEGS

## C#CCOc1ccc([C@@H]2C[C@@H](C(=O)Nc3ccc(OC(F)(F)F)cc3)CN(S(=O)(=O)C=C)C2)cc1 (relative stereo) [13-t]
[1]; exp_ref Probe, analysis C6
  enrich.exp.med: 0.8638
[1]
  enrich.exp.med.lin: 1.82
  enrich.exp.med.log2: 0.8638
[2]; exp_ref Probe, analysis C6
  enrich.exp.med: 0.2961
[2]
  enrich.exp.med.lin: 1.228
  enrich.exp.med.log2: 0.2961
[3]
  enrich.exp.med: -1.906
[4]
  enrich.exp.med: 0.04694
[5]
  enrich.exp.med: 0.1255
[6]
  enrich.exp.med: 1.32

## C=CS(=O)(=O)N1C[C@H](C(=O)Nc2ccc(OC(F)(F)F)cc2)C[C@@H](c2ccccc2)C1 [3a]
[7]; Comp, protein NOP56 O00567
  enrich.exp.med: 1.117
[7]; [16]
  enrich.exp.med.lin: 2.169
  enrich.exp.med.log2: 1.117
[8]
  enrich.exp.med: 0.8298
[9]
  enrich.exp.med: 0.6024
[10]
  enrich.exp.med: 0.6361
[11]; Comp, protein CAD P27708
  enrich.exp.med: 1.9642
[11]; [17]
  enrich.exp.med.lin: 3.902
  enrich.exp.med.log2: 1.9642
[12]
  enrich.exp.med: 0.8256
[13]
  enrich.exp.med: 0.6677
[14]
  enrich.exp.med: 0.6107
[15]
  enrich.exp.med: 0.6553
